We go through 22 compounds from patent US20230416275A1, “MODULATORS OF CYSTIC FIBROSIS TRANSMEMBRANE CONDUCTANCE REGULATOR” (VERTEX PHARMACEUTICALS INCORPORATED, priority 2020, published 2023).

This assay addresses CFTR-mediated chloride transport in human intestinal epithelial enteroid cells (Homo sapiens, UniProt P13569). The assay can be described thus: Membrane potential dye, Enteroid Assay A. It is filed as cell-based. The conditions noted are these: for Ent. A Max Activity (%): % of chloride transport of triple combination control (3 μM N-[(6-amino-2-pyridyl)sulfonyl]-6-(3-fluoro-5-isobutoxy-phenyl)-2-[(4S)-2,2,4-trimethylpyrrolidin-1-yl]pyridine-3-carboxamide, 3 μM tezacaftor, 300 nM acute ivacaftor); for EC50: enteroid cells, 18-24 hours incubation, acute 10 μM forskolin and 300 nM ivacaftor, read-out: Ent. A EC50. As to the method: Base medium (ADF+++) consisted of Advanced DMEM/Ham's F12, 2 mM Glutamax, 10 mM HEPES, […] penicillin/streptomycin.
Intestinal enteroid maintenance medium (IEMM) consisted of ADF+++, 1×B27 supplement, 1×N2 supplement, 1.25 mM N-acetyl cysteine, 10 mM Nicotinamide, 50 ng/mL hEGF, 10 nM Gastrin, 1 μg/mL hR-spondin-1, 100 ng/mL hNoggin, TGF-b type 1 inhibitor A-83-01, 100 μg/mL Primocin, 10 μM P38 MAPK inhibitor SB202190.
Bath 1 Buffer consisted of 1 mM MgCl2, 160 mM NaCl, 4.5 mM KCl, 10 mM HEPES, 10 mM Glucose, 2 mM CaCl2.
Chloride Free Buffer consisted of 1 mM Magnesium Gluconate, 2 mM Calcium Gluconate, 4.5 mM Potassium Gluconate, 160 mM Sodium Gluconate, 10 mM HEPES, 10 mM Glucose.
Bath1 Dye Solution consisted of Bath 1 Buffer, 0.04% Pluronic F127, 20 μM Methyl Oxonol, 30 μM CaCCinh-A01, 30 μM Chicago Sky Blue.
Chloride Free Dye Solution consisted of Chloride Free Buffer, 0.04% Pluronic F127, 20 μM Methyl Oxonol, 30 μM CaCCinh-A01, 30 μM Chicago Sky Blue.
Chloride Free Dye Stimulation Solution consisted of Chloride Free Dye Solution, 10 μM forskolin, 100 μM IBMX, and 300 nM Compound III.
Human intestinal epithelial enteroid cells were obtained from the Hubrecht Institute for Developmental Biology and Stem Cell Research, Utrecht, The Netherlands and expanded in T-Flasks as previously described (Dekkers J F, Wiegerinck C L, de Jonge H R, Bronsveld I, Janssens H M, de Winter-de Groot K M, Brandsma A M, de Jong N W M, Bijvelds M J C, Scholte B J, Nieuwenhuis E E S, van den Brink S, Clevers H, van der Ent C K, Middendorp S and M Beekman J M. A functional CFTR assay using primary cystic fibrosis intestinal organoids. Nat Med. 2013 July; 19(7):939-45).
c. Enteroid Cell Harvesting and Seeding
Cells were recovered in cell recovery solution, collected by centrifugation at 650 rpm for 5 minutes at 4° C., resuspended in TrypLE and incubated for 5 minutes at 37° C. Cells were then collected by centrifugation at 650 rpm for 5 minutes at 4° C. and resuspended in IEMM containing 10 μM ROCK inhibitor (RI). The cell suspension was passed through a 40 μm cell strainer and resuspended at 1×10^6 cells/mL in IEMM containing 10 μM RI. Cells were seeded at 5000 cells/well into multi-well plates and incubated for overnight at 37° C., 95% humidity and 5% CO2 prior to assay.
d. Membrane Potential Dye, Enteroid Assay A
Enteroid cells were incubated with test compound in IEMM for 18-24 hours at 37° C., 95% humidity and 5% CO2. […] Briefly, cells were washed 5 times in Bath 1 Buffer. Bath 1 Dye Solution was added, and the cells were incubated for 25 minutes at room temperature. Following dye incubation, cells were washed 3 times in Chloride Free Dye Solution. Chloride transport was initiated by addition of Chloride Free Dye Stimulation Solution and the fluorescence signal was read for 15 minutes. […] Chloride transport was then expressed as a percentage of the chloride transport following treatment with 3 μM N-[(6-amino-2-pyridyl)sulfonyl]-6-(3-fluoro-5-isobutoxy-phenyl)-2-[(4S)-2,2,4-trimethylpyrrolidin-1-yl]pyridine-3-carboxamide, 3 μM (R)-1-(2,2-difluorobenzo[d][1,3]dioxol-5-yl)-N-(1-(2,3-dihydroxypropyl)-6-fluoro-2-(1-hydroxy-2-methylpropan-2-yl)-1H-indol-5-yl)cyclopropanecarboxamide and 300 nM acute N-[2,4-bis(1,1-dimethylethyl)-5-hydroxyphenyl]-1,4-dihydro-4-oxoquinoline-3-carboxamide triple combination control (% Activity).

Sequence of CFTR-mediated chloride transport in human intestinal epithelial enteroid cells (P13569 with tags, fused parts or gaps DEL508-508): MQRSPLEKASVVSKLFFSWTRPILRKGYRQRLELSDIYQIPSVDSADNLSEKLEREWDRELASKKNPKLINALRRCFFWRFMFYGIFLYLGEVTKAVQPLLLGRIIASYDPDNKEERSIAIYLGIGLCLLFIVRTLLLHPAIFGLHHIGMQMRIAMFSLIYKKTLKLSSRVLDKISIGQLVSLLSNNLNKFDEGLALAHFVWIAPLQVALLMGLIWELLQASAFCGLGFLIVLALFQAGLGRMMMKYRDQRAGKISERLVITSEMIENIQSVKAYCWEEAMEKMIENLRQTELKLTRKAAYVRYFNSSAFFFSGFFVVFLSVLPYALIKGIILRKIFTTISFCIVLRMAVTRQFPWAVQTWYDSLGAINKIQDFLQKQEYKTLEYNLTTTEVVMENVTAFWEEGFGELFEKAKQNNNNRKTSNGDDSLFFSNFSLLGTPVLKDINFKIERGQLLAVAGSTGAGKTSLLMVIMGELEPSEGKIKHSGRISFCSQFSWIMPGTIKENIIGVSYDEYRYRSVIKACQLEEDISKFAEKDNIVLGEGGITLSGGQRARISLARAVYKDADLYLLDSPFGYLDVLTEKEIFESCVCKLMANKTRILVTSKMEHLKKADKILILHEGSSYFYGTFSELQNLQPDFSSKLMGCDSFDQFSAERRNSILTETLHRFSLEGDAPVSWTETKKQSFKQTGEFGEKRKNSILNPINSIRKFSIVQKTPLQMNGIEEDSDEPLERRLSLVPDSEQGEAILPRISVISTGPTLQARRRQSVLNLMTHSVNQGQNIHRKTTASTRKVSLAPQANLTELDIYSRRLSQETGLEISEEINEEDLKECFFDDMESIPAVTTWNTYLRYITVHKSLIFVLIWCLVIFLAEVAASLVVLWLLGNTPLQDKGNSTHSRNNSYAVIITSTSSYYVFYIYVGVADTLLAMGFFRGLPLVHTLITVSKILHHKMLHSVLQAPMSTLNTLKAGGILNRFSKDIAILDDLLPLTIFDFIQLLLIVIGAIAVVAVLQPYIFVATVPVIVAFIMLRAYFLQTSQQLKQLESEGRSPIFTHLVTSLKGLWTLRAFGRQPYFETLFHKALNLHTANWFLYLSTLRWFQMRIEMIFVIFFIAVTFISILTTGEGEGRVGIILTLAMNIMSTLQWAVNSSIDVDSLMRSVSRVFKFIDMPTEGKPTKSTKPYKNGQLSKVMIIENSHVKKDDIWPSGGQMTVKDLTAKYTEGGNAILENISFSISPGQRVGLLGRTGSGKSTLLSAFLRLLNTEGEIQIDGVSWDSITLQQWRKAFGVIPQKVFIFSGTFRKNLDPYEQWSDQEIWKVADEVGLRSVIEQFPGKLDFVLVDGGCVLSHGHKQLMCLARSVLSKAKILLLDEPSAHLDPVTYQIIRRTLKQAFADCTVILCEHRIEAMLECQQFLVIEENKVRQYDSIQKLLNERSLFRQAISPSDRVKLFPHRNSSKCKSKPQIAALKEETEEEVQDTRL

What is called EC50 is the concentration giving half of the maximal effect. On to `Cc1cccc(C)c1-c1cc2nc(n1)NS(=O)(=O)c1cccc(n1)NC(=O)[C@@H]1C[C@@H](CN(C(=O)OC(C)(C)C)C1)O2` (single isomer, unassigned) [Compound 16, tert-Butyl 19-(2,6-dimethylphenyl)-8,15,15-trioxo-2-oxa-15λ^6-thia-5,9,16,18,21,22-hexaazatetracyclo[15.3.1.13,7.110,14]tricosa-1(21),10,12,14(22),17,19-hexaene-5-carboxylate], for which the “Ent. A Max Activity (%)” value is “+++ (+++ is >60%)” and the EC50 was under 1000 nM.
For the compound `Cc1cccc(C)c1-c1cc2nc(n1)NS(=O)(=O)c1cccc(n1)NC(=O)[C@H]1C[C@H](CN(C(=O)OC(C)(C)C)C1)O2` (single isomer, unassigned) [Compound 17, tert-butyl 19-(2,6-dimethylphenyl)-8,15,15-trioxo-2-oxa-15λ^6-thia-5,9,16,18,21,22-hexaazatetracyclo[15.3.1.13,7.110,14]tricosa-1(21),10,12,14(22),17,19-hexaene-5-carboxylate], the “Ent. A Max Activity (%)” value is reported as “+ (+ is <30%)”.
For the compound `Cc1cccc(C)c1-c1cc2nc(n1)NS(=O)(=O)c1cccc(c1)NC(=O)C1CC(O2)C(C)(C)N(Cc2ccccc2)C1` (single isomer, unassigned) [Compound 73, 5-Benzyl-19-(2,6-dimethylphenyl)-4,4-dimethyl-2-oxa-15λ^6-thia-5,9,16,18,21-pentaazatetracyclo[15.3.1.13,7.110,14]tricosa-1(21),10,12,14(22),17,19-hexaene-8,15,15-trione], the “Ent. A Max Activity (%)” value was “+ (+ is <30%)” and the EC50 is under 1000 nM.
`Cc1cccc(C)c1-c1cc2nc(n1)NS(=O)(=O)c1cccc(c1)NC(=O)C1CC(O2)C(C)(C)N(Cc2ccccc2)C1` (single isomer, unassigned) [Compound 74, 5-benzyl-19-(2,6-dimethylphenyl)-4,4-dimethyl-2-oxa-15λ^6-thia-5,9,16,18,21-pentaazatetracyclo[15.3.1.13,7.110,14]tricosa-1(21),10,12,14(22),17,19-hexaene-8,15,15-trione]: the “Ent. A Max Activity (%)” value is “+ (+ is <30%)”.
Regarding `Cc1cccc(C)c1-c1cc2nc(n1)NS(=O)(=O)c1cccc(c1)NC(=O)[C@@H]1C[C@@H](CN(CC3C4(CC4)C34CC4)C1)O2` [Compound 6, (3S,7R)-19-(2,6-Dimethylphenyl)-5-({dispiro[2.0.24.13]heptan-7-yl}methyl)-2-oxa-15λ^6-thia-5,9,16,18,21-pentaazatetracyclo[15.3.1.13,7.110,14]tricosa-1(21),10(22),11,13,17,19-hexaene-8,15,15-trione], the “Ent. A Max Activity (%)” value is listed as “+++ (+++ is >60%)” and the EC50 was under 1000 nM.
The corresponding values for `Cc1cccc(C)c1-c1cc2nc(n1)NS(=O)(=O)c1cccc(c1)NC(=O)[C@@H]1C[C@@H](CN(Cc3ccccc3)C1)O2` [Compound 9, (3S,7R)-5-Benzyl-19-(2,6-dimethylphenyl)-2-oxa-15λ^6-thia-5,9,16,18,21-pentaazatetracyclo[15.3.1.13,7.110,14]tricosa-1(20),10,12,14(22),17(21),18-hexaene-8,15,15-trione] are “+++ (+++ is >60%)” and under 1000 nM.
`Cc1cccc(C)c1-c1cc2nc(n1)NS(=O)(=O)c1cccc(n1)NC(=O)C1CC(CN(C(=O)OC(C)(C)C)C1)O2` (stereo not drawn) [Compound 13, tert-Butyl 19-(2,6-dimethylphenyl)-8,15,15-trioxo-2-oxa-15λ^6-thia-5,9,16,18,21,22-hexaazatetracyclo[15.3.1.13,7.110,14]tricosa-1(21),10,12,14(22),17,19-hexaene-5-carboxylate]: the “Ent. A Max Activity (%)” value is given as “+++ (+++ is >60%)” and the EC50 is under 1000 nM.
The corresponding values for `Cc1cccc(C)c1-c1cc2nc(n1)NS(=O)(=O)c1cccc(n1)NC(=O)C1CC(CN(C(=O)OC(C)(C)C)C1)O2` (stereo not drawn) [Compound 18] are “+++ (+++ is >60%)” and 3000 to 30000 nM.
The corresponding values for `Cc1cccc(C)c1-c1cc2nc(n1)NS(=O)(=O)c1cccc(c1)NC(=O)[C@@H]1C[C@@H](CN(S(=O)(=O)CC(C)(C)C)C1)O2` [Compound 19] are “++ (++ is 30-60%)” and under 1000 nM.
The corresponding values for `Cc1cccc(C)c1-c1cc2nc(n1)NS(=O)(=O)c1cccc(c1)NC(=O)[C@@H]1C[C@@H](CN(CCN(C)C)C1)O2` [Compound 20] are “+ (+ is <30%)” and 3000 to 30000 nM.
In the case of `Cc1cccc(C)c1-c1cc2nc(n1)NS(=O)(=O)c1cccc(c1)NC(=O)[C@@H]1C[C@@H](CN(CCCC(C)(C)C)C1)O2` [Compound 22], the “Ent. A Max Activity (%)” value was “++ (++ is 30-60%)” and the EC50 was under 1000 nM.
The matching figures for `Cc1cccc(C)c1-c1cc2nc(n1)NS(=O)(=O)c1cccc(c1)NC(=O)[C@@H]1C[C@@H](CN(CCC(C)(C)C3CC3)C1)O2` [Compound 26]: “+++ (+++ is >60%)” and under 1000 nM.
The corresponding values for `Cc1cccc(C)c1-c1cc2nc(n1)NS(=O)(=O)c1cccc(c1)NC(=O)[C@@H]1C[C@@H](CN(CC(C)C(F)(F)F)C1)O2` (stereo partly drawn) [Compound 29] are “+++ (+++ is >60%)” and under 1000 nM.
The corresponding values for `Cc1cccc(C)c1-c1cc2nc(n1)NS(=O)(=O)c1cccc(c1)NC(=O)[C@@H]1C[C@@H](CN(CC3C(C)(C)C3(C)C)C1)O2` [Compound 31] are “++ (++ is 30-60%)” and under 1000 nM.
Turning to `COC(=O)N1C[C@@H]2C[C@H](C1)C(=O)Nc1cccc(c1)S(=O)(=O)Nc1nc(cc(-c3c(C)cccc3C)n1)O2` [Compound 32], the “Ent. A Max Activity (%)” value is reported as “+++ (+++ is >60%)” and the EC50 lay within 1000 to 3000 nM.
For `Cc1cccc(C)c1-c1cc2nc(n1)NS(=O)(=O)c1cccc(c1)NC(=O)[C@@H]1C[C@@H](CN(C(=O)OCC(C)(C)C)C1)O2` [Compound 34], the “Ent. A Max Activity (%)” value is “+++ (+++ is >60%)” and the EC50 is under 1000 nM.
The matching figures for `CCCCCOC(=O)N1C[C@@H]2C[C@H](C1)C(=O)Nc1cccc(c1)S(=O)(=O)Nc1nc(cc(-c3c(C)cccc3C)n1)O2` [Compound 35]: “+++ (+++ is >60%)” and under 1000 nM.
Take `Cc1cccc(C)c1-c1cc2nc(n1)NS(=O)(=O)c1cccc(c1)NC(=O)[C@@H]1C[C@@H](CN(C(=O)C3(C(F)(F)F)CC3)C1)O2` [Compound 36]: the “Ent. A Max Activity (%)” value is listed as “+++ (+++ is >60%)” and the EC50 is under 1000 nM.
The corresponding values for `Cc1cccc(C)c1-c1cc2nc(n1)NS(=O)(=O)c1cccc(c1)NC(=O)[C@@H]1C[C@@H](CN(C(=O)C3C(C)(C)C3(C)C)C1)O2` [Compound 37] are “++ (++ is 30-60%)” and under 1000 nM.
The matching figures for `Cc1cccc(C)c1-c1cc2nc(n1)NS(=O)(=O)c1cccc(c1)NC(=O)[C@@H]1C[C@@H](CN(CCC3CCOCC3)C1)O2` [Compound 38]: “++ (++ is 30-60%)” and 1000 to 3000 nM.
`CCN1C[C@@H]2C[C@H](C1)C(=O)Nc1cccc(c1)S(=O)(=O)Nc1nc(cc(-c3c(C)cccc3C)n1)O2` [Compound 39]: the “Ent. A Max Activity (%)” value is “+++ (+++ is >60%)” and the EC50 was 3000 to 30000 nM.
Turning to `CCCCN1C[C@@H]2C[C@H](C1)C(=O)Nc1cccc(c1)S(=O)(=O)Nc1nc(cc(-c3c(C)cccc3C)n1)O2` [Compound 40], the “Ent. A Max Activity (%)” value is “++ (++ is 30-60%)” and the EC50 was under 1000 nM.
